Measured values published in patent US8691753B2 (priority 2009, dated 2014).
Where two headings read alike, the source gives them in different places.

Columns and labels:
Type in all cases: biochemical
[1] = biological target: MMP-3h (Homo sapiens (Human), UniProt P08254); test: Inhibition constant (Ki) on MMP-3h; conditions: human MMP-3
Summary of the method: (§1)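 Ki values were determined against the human enzymes using a previously published inhibition protocol.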

[2] = biological target: MMP-8h (Homo sapiens (Human), UniProt P22894); test: Inhibition constant (Ki) on MMP-8h; conditions: human MMP-8
[3] = biological target: MMP-10h (Homo sapiens (Human), UniProt P09238); test: Inhibition constant (Ki) on MMP-10h; conditions: human MMP-10
[4] = biological target: MMP-2h (Homo sapiens (Human), UniProt P08253); test: Inhibition constant (Ki) on MMP-2h; conditions: human MMP-2
Summary of the method: as §1

[5] = biological target: MMP-9h (Homo sapiens (Human), UniProt P14780); test: Inhibition constant (Ki) on MMP-9h; conditions: human MMP-9
Summary of the method: as §1

[6] = biological target: MMP-12h (Homo sapiens (Human), UniProt P39900); test: Inhibition constant (Ki) on MMP-12h; conditions: human MMP-12
[7] = biological target: MMP-14h (Homo sapiens (Human), UniProt P50281); test: Inhibition constant (Ki) on MMP-14h; conditions: human MMP-14
Summary of the method: as §1

[8] = biological target: MMP-13h (Homo sapiens (Human), UniProt P45452); test: Inhibition constant (Ki) on MMP-13h; conditions: human MMP-13
Summary of the method: as §1

Chain of MMP-12h (P39900 106-470): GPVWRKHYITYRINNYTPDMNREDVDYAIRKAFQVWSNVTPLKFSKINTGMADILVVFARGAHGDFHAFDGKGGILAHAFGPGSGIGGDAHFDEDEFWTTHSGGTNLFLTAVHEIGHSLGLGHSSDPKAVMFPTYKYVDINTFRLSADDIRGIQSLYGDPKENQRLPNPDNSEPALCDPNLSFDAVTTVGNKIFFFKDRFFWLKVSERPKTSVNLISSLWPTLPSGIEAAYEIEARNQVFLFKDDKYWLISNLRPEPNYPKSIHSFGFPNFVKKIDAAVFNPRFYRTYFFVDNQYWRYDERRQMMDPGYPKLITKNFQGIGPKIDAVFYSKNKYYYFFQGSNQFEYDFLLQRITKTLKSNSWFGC
Chain of MMP-3h (P08254 100-477): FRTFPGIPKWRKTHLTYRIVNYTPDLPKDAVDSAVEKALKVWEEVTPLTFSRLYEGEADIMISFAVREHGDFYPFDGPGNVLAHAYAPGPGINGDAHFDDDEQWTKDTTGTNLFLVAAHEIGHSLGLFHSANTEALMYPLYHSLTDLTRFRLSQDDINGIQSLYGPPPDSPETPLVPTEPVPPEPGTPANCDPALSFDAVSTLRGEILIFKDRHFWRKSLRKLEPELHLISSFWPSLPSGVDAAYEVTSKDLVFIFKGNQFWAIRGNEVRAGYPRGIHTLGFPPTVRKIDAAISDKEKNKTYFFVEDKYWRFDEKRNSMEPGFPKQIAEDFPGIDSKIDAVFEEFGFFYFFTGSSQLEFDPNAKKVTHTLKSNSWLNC
Chain of MMP-10h (P09238 99-476): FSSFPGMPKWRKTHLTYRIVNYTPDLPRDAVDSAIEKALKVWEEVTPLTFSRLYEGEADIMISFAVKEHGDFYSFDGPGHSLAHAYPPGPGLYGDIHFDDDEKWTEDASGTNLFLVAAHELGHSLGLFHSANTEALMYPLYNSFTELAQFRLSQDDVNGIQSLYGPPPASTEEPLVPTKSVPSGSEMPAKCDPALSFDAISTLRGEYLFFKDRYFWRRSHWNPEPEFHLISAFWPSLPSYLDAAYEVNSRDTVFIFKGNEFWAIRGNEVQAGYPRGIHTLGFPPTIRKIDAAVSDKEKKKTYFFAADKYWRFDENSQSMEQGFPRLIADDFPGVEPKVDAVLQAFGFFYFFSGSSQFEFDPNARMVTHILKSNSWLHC
Chain of MMP-8h (P22894 101-467): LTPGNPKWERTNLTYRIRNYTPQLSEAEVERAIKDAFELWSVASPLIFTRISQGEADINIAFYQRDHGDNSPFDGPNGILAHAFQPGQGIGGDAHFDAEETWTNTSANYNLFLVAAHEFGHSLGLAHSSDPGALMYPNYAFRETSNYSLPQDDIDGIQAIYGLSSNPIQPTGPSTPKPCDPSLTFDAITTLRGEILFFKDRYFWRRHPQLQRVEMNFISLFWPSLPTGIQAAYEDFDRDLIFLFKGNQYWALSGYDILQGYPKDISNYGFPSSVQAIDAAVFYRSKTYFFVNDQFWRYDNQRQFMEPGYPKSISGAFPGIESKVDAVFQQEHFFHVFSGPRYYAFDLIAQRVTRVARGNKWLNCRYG
Chain of MMP-2h (P08253 110-660): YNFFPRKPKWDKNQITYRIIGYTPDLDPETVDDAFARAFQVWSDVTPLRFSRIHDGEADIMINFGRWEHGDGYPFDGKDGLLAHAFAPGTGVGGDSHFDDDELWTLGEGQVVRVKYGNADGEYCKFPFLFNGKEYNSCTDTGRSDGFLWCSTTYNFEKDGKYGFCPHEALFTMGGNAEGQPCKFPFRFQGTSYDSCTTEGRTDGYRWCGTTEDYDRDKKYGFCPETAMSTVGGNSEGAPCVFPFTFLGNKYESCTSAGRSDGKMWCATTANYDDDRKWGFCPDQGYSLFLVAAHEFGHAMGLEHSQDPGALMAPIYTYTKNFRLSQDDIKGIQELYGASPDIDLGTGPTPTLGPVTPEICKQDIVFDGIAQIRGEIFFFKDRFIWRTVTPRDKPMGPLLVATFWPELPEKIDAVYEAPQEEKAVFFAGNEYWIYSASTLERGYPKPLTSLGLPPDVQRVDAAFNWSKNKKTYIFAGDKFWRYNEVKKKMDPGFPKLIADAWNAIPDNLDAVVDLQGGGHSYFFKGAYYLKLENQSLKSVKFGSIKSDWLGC
Chain of MMP-9h (P14780 94-707): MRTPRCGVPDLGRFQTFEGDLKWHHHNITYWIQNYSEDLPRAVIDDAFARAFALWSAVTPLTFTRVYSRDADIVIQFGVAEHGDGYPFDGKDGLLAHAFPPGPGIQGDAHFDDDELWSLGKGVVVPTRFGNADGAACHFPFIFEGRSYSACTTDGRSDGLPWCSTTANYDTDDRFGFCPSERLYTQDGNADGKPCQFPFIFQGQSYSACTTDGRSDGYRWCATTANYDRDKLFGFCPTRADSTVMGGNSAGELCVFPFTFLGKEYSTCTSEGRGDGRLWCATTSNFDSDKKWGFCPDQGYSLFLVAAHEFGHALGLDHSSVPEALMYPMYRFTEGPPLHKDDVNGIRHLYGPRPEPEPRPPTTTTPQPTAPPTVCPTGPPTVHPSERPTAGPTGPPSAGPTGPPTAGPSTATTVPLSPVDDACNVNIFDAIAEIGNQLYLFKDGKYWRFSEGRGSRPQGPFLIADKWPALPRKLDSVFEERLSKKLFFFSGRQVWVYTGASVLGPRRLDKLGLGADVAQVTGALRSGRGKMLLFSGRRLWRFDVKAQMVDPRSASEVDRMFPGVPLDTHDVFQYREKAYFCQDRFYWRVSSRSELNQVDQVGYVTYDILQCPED

NC(=O)[C@H](CCC(=O)O)NC(=O)[C@H](CCC(=O)O)NC(=O)CCc1ccc(-c2cc(Cl)cc(Cl)c2)cc1 [Compound 58, (S)-5-amino-4-((S)-4-carboxy-2-(3-(3′,5′-dichlorobiphenyl-4-yl)propanamido)butanamido)-5-oxopentanoic acid]
Ki ([1]; read-out: Ki MMP-3h): > 1000 nM
Ki ([2]; read-out: Ki MMP-8h): > 5000 nM
Ki ([3]; read-out: Ki MMP-10h): > 1000 nM
Ki ([4]; read-out: Ki MMP-2h): > 1000 nM
Ki ([5]; read-out: Ki MMP-9h): 391 nM
Ki ([6]; read-out: Ki MMP-12h): 56 nM
Ki ([7]; read-out: Ki MMP-14h): > 1000 nM
Ki ([8]; read-out: Ki MMP-13h): > 1000 nM

NC(=O)[C@H](CCC(=O)O)NC(=O)[C@H](Cc1c[nH]cn1)NC(=O)CCc1ccc(-c2ccc(-c3ccccc3)cc2)cc1 [Compound 77, (S)-4-((S)-3-(1H-imidazol-4-yl)-2-(3-(4′-phenylbiphenyl-4-yl)propanamido)propanamido)-5-amino-5-oxopentanoic acid]
Ki ([1]; read-out: Ki MMP-3h): > 1000 nM
Ki ([2]; read-out: Ki MMP-8h): > 1000 nM
Ki ([3]; read-out: Ki MMP-10h): > 5000 nM
Ki ([4]; read-out: Ki MMP-2h): > 1000 nM
Ki ([5]; read-out: Ki MMP-9h): > 50000 nM
Ki ([6]; read-out: Ki MMP-12h): 234 nM
Ki ([7]; read-out: Ki MMP-14h): > 10000 nM
Ki ([8]; read-out: Ki MMP-13h): 377 nM

CC(C)C[C@H](NC(=O)[C@H](CCC(=O)O)NC(=O)CCc1ccc(-c2ccc(-c3ccccc3)cc2)cc1)C(N)=O [Compound 69, (S)-5-((S)-1-amino-4-methyl-1-oxopentan-2-ylamino)-4-(3-(4′-phenylbiphenyl-4-yl)propanamido)-5-oxopentanoic acid]
Ki ([1]; read-out: Ki MMP-3h): 258 nM
Ki ([2]; read-out: Ki MMP-8h): 567 nM
Ki ([3]; read-out: Ki MMP-10h): 382 nM
Ki ([4]; read-out: Ki MMP-2h): 332 nM
Ki ([5]; read-out: Ki MMP-9h): > 1000 nM
Ki ([6]; read-out: Ki MMP-12h): 7.8 nM
Ki ([7]; read-out: Ki MMP-14h): > 5000 nM
Ki ([8]; read-out: Ki MMP-13h): 81 nM

NC(=O)[C@H](Cc1ccc(O)cc1)NC(=O)[C@H](CCC(=O)O)NC(=O)CCc1ccc(-c2ccc(-c3ccccc3)cc2)cc1 [Compound 65, (S)-5-((S)-1-amino-3-(4-hydroxyphenyl)-1-oxopropan-2-ylamino)-4-(3-(4′-phenylbiphenyl-4-yl)propanamido)-5-oxopentanoic acid]
Ki ([1]; read-out: Ki MMP-3h): 620 nM
Ki ([2]; read-out: Ki MMP-8h): 793 nM
Ki ([3]; read-out: Ki MMP-10h): 119 nM
Ki ([4]; read-out: Ki MMP-2h): 73 nM
Ki ([5]; read-out: Ki MMP-9h): > 1000 nM
Ki ([6]; read-out: Ki MMP-12h): 6.6 nM
Ki ([7]; read-out: Ki MMP-14h): > 1000 nM
Ki ([8]; read-out: Ki MMP-13h): 33 nM

NCCCC[C@H](NC(=O)[C@H](CCC(=O)O)NC(=O)CCc1ccc(-c2ccccc2)cc1)C(N)=O [Compound 44, (S)-4-(3-(biphenyl-4-yl)propanamido)-5-((S)-1,6-diamino-1-oxohexan-2-ylamino)-5-oxopentanoic acid]
Ki ([1]; read-out: Ki MMP-3h): > 10000 nM
Ki ([2]; read-out: Ki MMP-8h): 414 nM
Ki ([3]; read-out: Ki MMP-10h): > 5000 nM
Ki ([4]; read-out: Ki MMP-2h): > 1000 nM
Ki ([5]; read-out: Ki MMP-9h): > 5000 nM
Ki ([6]; read-out: Ki MMP-12h): 119 nM
Ki ([7]; read-out: Ki MMP-14h): > 5000 nM
Ki ([8]; read-out: Ki MMP-13h): > 1000 nM

NC(=O)[C@H](CCC(=O)O)NC(=O)[C@H](CCC(=O)O)NC(=O)CCc1ccc(-c2nccs2)cc1 [Compound 37, (S)-5-amino-4-((S)-4-carboxy-2-(3-(4-(thiazol-2-yl)phenyl)propanamido)butanamido)-5-oxopentanoic acid]
Ki [1]: > 5000 nM
Ki [2]: > 1000 nM
Ki [3]: > 1000 nM
Ki [4]: 657 nM
Ki [5]: > 1000 nM
Ki [6]: 369 nM
Ki [7]: > 1000 nM
Ki [8]: 240 nM

NC(=O)[C@H](CCC(=O)O)NC(=O)[C@H](CC(=O)O)NC(=O)CCc1ccc(-c2cc(-c3ccccc3)cs2)cc1 [Compound 100, (S)-5-amino-4-((S)-3-carboxy-2-(3-(4-(4-phenylthiophen-2-yl)phenyl)propanamido)propanamido)-5-oxopentanoic acid]
Ki ([1]; read-out: Ki MMP-3h): > 1000 nM
Ki ([2]; read-out: Ki MMP-8h): 559 nM
Ki ([3]; read-out: Ki MMP-10h): > 1000 nM
Ki ([4]; read-out: Ki MMP-2h): 862 nM
Ki ([5]; read-out: Ki MMP-9h): > 1000 nM
Ki ([6]; read-out: Ki MMP-12h): 15.1 nM
Ki ([7]; read-out: Ki MMP-14h): > 1000 nM
Ki ([8]; read-out: Ki MMP-13h): 559 nM

NC(=O)[C@H](CCC(=O)O)NC(=O)[C@H](CCC(=O)O)NC(=O)CCc1ccc(-c2cccc(CO)c2)cc1 [Compound 60, (S)-5-amino-4-((S)-4-carboxy-2-(3-(3′-(hydroxymethyl)biphenyl-4-yl)propanamido)butanamido)-5-oxopentanoic acid]
Ki ([1]; read-out: Ki MMP-3h): > 10000 nM
Ki ([2]; read-out: Ki MMP-8h): 809 nM
Ki ([3]; read-out: Ki MMP-10h): > 5000 nM
Ki ([4]; read-out: Ki MMP-2h): > 5000 nM
Ki ([5]; read-out: Ki MMP-9h): > 5000 nM
Ki ([6]; read-out: Ki MMP-12h): 52 nM
Ki ([7]; read-out: Ki MMP-14h): > 10000 nM
Ki ([8]; read-out: Ki MMP-13h): > 5000 nM

NC(=O)[C@H](CCC(=O)O)NC(=O)[C@H](CC(=O)O)NC(=O)CCc1ccc(-c2ccc(-c3ccccc3)cc2)cc1 [Compound 74, (S)-5-amino-4-((S)-3-carboxy-2-(3-(4′-phenylbiphenyl-4-yl)propanamido)propanamido)-5-oxopentanoic acid]
Ki ([1]; read-out: Ki MMP-3h): 16 nM
Ki ([2]; read-out: Ki MMP-8h): 865 nM
Ki ([3]; read-out: Ki MMP-10h): 430 nM
Ki ([4]; read-out: Ki MMP-2h): 39 nM
Ki ([5]; read-out: Ki MMP-9h): > 1000 nM
Ki ([6]; read-out: Ki MMP-12h): 10.5 nM
Ki ([7]; read-out: Ki MMP-14h): > 1000 nM
Ki ([8]; read-out: Ki MMP-13h): 13.5 nM
